Results as given in ChEMBL document CHEMBL5649166, “RIP3 induces apoptosis independent of pronecrotic kinase activity” (Mol Cell, 2014).

Tests used:
[1] = target: Tyrosine-protein kinase Yes (Homo sapiens) (UniProt P07947); experiment: Inhibition of human YES/YES1 using poly[Glu:Tyr] (4:1) as substrate at 1 uM in presence of 32P-ATP by Hotspot assay relative to control; values are per cent of control
[2] = target: T1, Mitogen-activated protein kinase kinase kinase 5 (Homo sapiens) (UniProt Q99683); experiment: Inhibition of human ASK1/MAP3K5 using myelin basic protein as substrate at 1 uM in presence of 32P-ATP by Hotspot assay relative to control; values are per cent of control
T1 sequence (whole entry): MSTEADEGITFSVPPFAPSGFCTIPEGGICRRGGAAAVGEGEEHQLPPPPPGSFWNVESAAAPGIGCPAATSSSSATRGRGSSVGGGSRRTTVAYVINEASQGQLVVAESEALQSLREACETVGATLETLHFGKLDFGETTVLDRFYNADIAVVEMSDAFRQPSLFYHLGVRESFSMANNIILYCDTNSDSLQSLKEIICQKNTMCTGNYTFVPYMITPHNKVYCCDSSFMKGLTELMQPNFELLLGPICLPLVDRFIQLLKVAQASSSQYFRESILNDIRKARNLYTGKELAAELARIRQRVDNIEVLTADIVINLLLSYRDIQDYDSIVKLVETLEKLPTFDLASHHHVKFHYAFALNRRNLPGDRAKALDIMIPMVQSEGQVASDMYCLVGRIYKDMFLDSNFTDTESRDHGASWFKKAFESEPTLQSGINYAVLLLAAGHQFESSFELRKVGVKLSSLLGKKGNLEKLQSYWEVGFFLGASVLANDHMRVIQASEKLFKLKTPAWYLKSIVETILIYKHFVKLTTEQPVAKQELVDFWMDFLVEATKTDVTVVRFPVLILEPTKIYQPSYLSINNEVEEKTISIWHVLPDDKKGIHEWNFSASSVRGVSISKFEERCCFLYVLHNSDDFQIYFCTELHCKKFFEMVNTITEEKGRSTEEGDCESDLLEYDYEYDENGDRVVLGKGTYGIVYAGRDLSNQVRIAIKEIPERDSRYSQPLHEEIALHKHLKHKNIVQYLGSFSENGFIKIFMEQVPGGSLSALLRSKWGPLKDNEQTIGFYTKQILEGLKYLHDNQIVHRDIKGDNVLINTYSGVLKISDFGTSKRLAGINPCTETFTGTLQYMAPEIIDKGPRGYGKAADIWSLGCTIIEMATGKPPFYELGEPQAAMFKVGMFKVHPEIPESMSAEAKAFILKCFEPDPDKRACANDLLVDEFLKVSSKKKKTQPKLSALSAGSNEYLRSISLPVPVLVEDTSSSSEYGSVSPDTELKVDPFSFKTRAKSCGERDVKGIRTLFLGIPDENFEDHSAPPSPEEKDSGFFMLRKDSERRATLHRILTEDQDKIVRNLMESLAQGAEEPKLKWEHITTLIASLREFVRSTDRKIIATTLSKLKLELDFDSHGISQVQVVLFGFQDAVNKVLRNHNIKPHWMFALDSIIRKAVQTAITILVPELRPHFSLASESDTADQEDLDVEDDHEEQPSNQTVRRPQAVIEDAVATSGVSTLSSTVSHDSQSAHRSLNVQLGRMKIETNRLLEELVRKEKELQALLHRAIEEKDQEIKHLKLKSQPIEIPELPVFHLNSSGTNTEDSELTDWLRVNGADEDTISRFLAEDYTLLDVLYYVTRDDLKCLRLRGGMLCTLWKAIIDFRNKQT

[3] = target: T2, Tyrosine-protein kinase receptor TYRO3 (Homo sapiens) (UniProt Q06418); experiment: Inhibition of human TYRO3/SKY using poly[Glu:Tyr] (4:1) as substrate at 1 uM in presence of 32P-ATP by Hotspot assay relative to control; values are per cent of control
T2 sequence (whole entry): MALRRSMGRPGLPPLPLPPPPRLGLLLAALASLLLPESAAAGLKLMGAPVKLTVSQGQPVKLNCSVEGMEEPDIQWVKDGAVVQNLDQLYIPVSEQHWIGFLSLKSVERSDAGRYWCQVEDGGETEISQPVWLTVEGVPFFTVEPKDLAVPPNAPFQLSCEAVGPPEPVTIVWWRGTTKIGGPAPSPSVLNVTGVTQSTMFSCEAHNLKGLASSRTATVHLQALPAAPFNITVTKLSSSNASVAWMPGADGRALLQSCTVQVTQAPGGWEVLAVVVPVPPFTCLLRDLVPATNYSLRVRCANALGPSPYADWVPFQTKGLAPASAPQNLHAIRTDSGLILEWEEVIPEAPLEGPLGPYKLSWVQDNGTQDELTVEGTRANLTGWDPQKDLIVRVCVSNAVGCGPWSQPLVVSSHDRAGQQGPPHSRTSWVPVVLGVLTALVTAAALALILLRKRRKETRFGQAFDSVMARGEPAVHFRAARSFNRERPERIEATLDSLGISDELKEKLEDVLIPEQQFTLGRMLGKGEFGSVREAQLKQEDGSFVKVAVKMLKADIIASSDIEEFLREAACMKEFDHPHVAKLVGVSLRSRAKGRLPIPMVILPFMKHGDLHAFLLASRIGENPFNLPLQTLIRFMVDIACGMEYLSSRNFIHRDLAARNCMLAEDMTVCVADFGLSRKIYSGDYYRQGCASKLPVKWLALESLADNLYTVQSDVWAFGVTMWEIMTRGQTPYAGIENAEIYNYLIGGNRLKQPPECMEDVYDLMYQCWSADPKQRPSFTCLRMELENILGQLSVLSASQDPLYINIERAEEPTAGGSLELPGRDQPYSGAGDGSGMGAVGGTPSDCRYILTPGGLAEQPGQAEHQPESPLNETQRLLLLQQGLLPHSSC

[4] = target: Protein kinase C delta type (Homo sapiens) (UniProt Q05655); experiment: Inhibition of human PKCd using ERMRPRKRQGSVRRRV as substrate at 1 uM in presence of 32P-ATP by Hotspot assay relative to control; values are per cent of control
Sequence of Protein kinase C delta type (Homo sapiens) (Q05655 whole entry, looked up): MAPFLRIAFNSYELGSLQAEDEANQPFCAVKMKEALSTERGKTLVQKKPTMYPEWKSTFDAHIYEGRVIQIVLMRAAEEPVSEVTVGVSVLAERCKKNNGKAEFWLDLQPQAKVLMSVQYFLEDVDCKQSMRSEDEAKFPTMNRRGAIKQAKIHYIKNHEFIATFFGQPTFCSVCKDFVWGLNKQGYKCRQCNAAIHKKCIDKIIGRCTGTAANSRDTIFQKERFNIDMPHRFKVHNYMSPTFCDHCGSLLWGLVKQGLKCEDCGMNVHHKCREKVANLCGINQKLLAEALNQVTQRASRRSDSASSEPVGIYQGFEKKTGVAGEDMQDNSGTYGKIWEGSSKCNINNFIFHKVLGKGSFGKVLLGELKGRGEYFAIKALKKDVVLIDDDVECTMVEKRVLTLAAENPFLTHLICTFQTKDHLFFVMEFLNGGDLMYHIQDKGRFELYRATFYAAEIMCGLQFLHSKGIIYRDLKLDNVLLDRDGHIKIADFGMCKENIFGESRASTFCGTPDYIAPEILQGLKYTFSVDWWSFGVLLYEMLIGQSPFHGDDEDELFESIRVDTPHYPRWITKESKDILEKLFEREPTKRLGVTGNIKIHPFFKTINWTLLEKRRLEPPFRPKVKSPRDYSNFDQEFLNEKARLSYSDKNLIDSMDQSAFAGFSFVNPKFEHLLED

[5] = target: Receptor-interacting serine/threonine-protein kinase 2 (Homo sapiens) (UniProt O43353); experiment: Inhibition of human RIPK2 using myelin basic protein as substrate at 1 uM in presence of 32P-ATP by Hotspot assay relative to control; values are per cent of control
Sequence of Receptor-interacting serine/threonine-protein kinase 2 (Homo sapiens) (O43353 whole entry): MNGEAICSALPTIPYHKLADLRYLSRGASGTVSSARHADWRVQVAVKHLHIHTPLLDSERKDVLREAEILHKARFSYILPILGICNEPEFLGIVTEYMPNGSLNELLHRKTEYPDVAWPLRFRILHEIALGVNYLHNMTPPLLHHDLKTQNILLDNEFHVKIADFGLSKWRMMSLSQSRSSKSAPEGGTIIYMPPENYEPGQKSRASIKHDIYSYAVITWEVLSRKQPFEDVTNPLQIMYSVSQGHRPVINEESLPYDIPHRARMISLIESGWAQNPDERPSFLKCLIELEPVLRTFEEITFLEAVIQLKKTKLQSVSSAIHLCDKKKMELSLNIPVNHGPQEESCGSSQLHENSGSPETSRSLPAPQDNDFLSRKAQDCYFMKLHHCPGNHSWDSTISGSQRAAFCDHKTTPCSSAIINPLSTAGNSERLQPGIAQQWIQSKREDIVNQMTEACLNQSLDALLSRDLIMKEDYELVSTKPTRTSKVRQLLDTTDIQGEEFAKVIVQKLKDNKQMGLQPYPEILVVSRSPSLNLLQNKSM

[6] = target: Receptor tyrosine-protein kinase erbB-2 (Homo sapiens) (UniProt P04626); experiment: Inhibition of human ERBB2/HER2 using poly[Glu:Tyr] (4:1) as substrate at 1 uM in presence of 32P-ATP by Hotspot assay relative to control; values are per cent of control
Sequence of Receptor tyrosine-protein kinase erbB-2 (Homo sapiens) (P04626 whole entry): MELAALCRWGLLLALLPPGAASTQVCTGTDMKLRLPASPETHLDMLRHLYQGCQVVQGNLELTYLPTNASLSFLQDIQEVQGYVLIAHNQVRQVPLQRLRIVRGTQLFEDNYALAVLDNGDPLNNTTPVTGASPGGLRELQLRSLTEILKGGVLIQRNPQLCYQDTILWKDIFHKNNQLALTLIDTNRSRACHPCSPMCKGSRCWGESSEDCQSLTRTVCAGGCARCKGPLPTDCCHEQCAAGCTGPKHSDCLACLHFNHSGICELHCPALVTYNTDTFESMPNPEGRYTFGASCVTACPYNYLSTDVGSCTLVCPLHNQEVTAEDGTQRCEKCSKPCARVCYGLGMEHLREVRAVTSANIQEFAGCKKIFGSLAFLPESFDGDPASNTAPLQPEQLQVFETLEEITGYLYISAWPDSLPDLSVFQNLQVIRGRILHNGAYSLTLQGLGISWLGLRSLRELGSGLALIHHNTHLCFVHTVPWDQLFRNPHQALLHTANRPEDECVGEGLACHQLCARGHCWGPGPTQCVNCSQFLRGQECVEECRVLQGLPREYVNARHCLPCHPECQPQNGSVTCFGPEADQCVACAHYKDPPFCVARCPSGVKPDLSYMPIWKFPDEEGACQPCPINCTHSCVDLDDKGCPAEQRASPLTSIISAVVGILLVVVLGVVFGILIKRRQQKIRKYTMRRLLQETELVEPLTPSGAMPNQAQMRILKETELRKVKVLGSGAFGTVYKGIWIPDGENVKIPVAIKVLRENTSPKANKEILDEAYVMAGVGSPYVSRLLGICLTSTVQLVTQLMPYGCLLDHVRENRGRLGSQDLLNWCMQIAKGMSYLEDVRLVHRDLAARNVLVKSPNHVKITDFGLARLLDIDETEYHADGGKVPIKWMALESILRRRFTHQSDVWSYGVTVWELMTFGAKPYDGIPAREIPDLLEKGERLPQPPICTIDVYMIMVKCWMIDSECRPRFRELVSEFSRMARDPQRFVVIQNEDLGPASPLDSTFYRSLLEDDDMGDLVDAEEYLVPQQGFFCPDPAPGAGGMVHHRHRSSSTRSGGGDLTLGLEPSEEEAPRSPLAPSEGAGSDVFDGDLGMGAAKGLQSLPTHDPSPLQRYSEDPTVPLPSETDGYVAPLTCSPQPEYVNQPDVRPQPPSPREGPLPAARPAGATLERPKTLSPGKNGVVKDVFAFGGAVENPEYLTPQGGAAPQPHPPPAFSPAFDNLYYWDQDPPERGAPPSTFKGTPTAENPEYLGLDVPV

Sequence of Tyrosine-protein kinase Yes (Homo sapiens) (P07947 2-543 limits assumed): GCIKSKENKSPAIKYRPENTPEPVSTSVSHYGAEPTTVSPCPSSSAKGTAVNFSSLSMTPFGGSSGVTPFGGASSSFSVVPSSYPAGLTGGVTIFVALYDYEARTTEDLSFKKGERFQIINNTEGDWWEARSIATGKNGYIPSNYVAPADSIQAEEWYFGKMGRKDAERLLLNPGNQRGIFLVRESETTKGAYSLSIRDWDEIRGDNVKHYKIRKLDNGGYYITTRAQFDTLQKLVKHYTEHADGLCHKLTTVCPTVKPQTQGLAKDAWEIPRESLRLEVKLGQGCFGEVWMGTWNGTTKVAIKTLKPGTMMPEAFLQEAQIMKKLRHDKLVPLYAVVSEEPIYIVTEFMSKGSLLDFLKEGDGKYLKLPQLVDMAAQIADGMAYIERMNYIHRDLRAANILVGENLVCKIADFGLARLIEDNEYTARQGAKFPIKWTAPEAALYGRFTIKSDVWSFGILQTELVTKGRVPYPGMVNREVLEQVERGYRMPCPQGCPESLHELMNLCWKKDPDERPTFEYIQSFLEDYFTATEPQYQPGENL

SMILES	residual activity [1] [%]	residual activity [2] [%]	residual activity [3] [%]	residual activity [4] [%]	residual activity [5] [%]	residual activity [6] [%]
CC(C)S(=O)(=O)c1ccc2nccc(Nc3ccc4scnc4c3)c2c1	20.1	97.6	84.6	86.3	20.7	85
Cc1cc(-c2cnc(N)c3c(-c4ccc5scnc5c4)csc23)n(C)n1	17	102	100	60.4	13.6	92.3
CNC(=O)c1ccc2c(c1)ncn2-c1ccc(CC(=O)OC(C)(C)C)cc1	39.6	96.7	99.3	90.1	82.3	100
